Drawing on patent publication US12410160B2 (Gilead Sciences, Inc., priority 2021, dated 2025), this text covers IC50 and EC50 for 16 molecules.

Read-outs that look alike come from different tables or passages of the source.

One assay deals with human OATP1B1 (Homo sapiens (Human), UniProt Q9Y6L6). The assay is described as follows: In Vitro Inhibition Assessment with Human OATP1B1 Transporter. The format is in vitro ADME. Particulars: HEK293-OATP1B1 cells, probe substrate pravastatin. How it is done:
In Vitro Inhibition Assessment with Human OATP1B1 and OATP1B3 Transporters Assay Protocol
The purpose of this assay was to assess the inhibition potential of test article (TA) toward human OATP1B1 and OATP1B3 transporters in vitro using cell lines transfected with the individual transporters. The assays used clinically relevant probe substrate pravastatin and a known positive control inhibitor rifampicin. HEK293 mock, HEK293-OATP1B1, and HEK293-OATP1B3 transfected cells were seeded onto CellCoat Poly-D-Lysine coated 96 well black cell culture plates with clear bottoms (Greiner bio-one, Cat. #655946) at a density of 70,000 cells/well and cultured to confluency overnight. Seeding media used was Dulbecco's Modification of Eagle's Medium (DMEM—with GlutaMAX high glucose; Gibco, Cat #: 10569-010) supplemented with 10% fetal bovine serum, 0.1 mM non-essential amino acids, 100 U/mL penicillin, and 100 μg/mL streptomycin. On assay day, media were removed from the assay plates and cells were washed with Hanks' Balanced Salt Solution (HBSS Buffer) (Corning, Cat. #21-023-CV). All TAs and reference inhibitor were serially diluted in DMSO to create spiking solutions at concentrations of 250-fold of final assay concentrations (final DMSO content 0.4%). Cells were preincubated with HBSS buffer containing test compounds for 15 minutes. After the removal of HBSS buffer, dose solution containing TA or reference inhibitor and probe substrate were added to the HEK293-OATP1B1, HEK-293-OATP1B3 and its associated mock cell plate, respectively. The co-incubation period of TAs with the corresponding probe substrate for all plates was 5 minutes. An aliquot of the dose solution was removed from the HEK293 mock cell plates and analysed for dose recovery. Cells were then washed three times with ice cold HBSS buffer and then immediately extracted with methanol:water (70:30 v:v) containing internal standard labetolol (30 nM). The supernatants were evaporated to dryness on injection plates and reconstituted in 80% water containing 20% acetonitrile and 0.1% formic acid for analysis by liquid chromatography with tandem mass spectrometry (LC-MS-MS).
Fractional transport activities were calculated from the equation: Activity %=(A−B)/(C−D)×100
• A: translocated amount of substrate in the presence of TA on transfected cells • B: translocated amount of substrate in the presence of TA on Mock cells • C: translocated amount of substrate in the presence of solvent on transfected cells • D: translocated amount of substrate in the presence of solvent on Mock cells
GraphPad Prism 7.0 (GraphPad Software Inc., San Diego, CA) was used for curve fitting and determination of reaction parameters. In uptake transporter inhibition assays, the IC50 (μM) was calculated, where applicable. IC50 was defined as the concentration of TA required to inhibit maximal activity by 50%.

For the next assay, the target named is human KHK-C (Homo sapiens (Human), UniProt P50053). Put plainly: KHK Biochemical Assay (IC50), ADP-Glo, KHK-C. Particulars: average of at least two separate assays. Summed up: (§1)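 His-tagged enzyme expressed in BL21 (DE3), Ni-NTA purified. Compounds, serially diluted 1:3 in DMSO, pre-incubated 30 min with enzyme in 50 mM Hepes pH 7.4, 140 mM KCl, 5 mM MgCl2, 0.01% Triton-X, then ATP and fructose added; 4 h at room temperature. ADP formation read by ADP-Glo luminescence.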
human KHK-C, sequence (P50053 whole entry): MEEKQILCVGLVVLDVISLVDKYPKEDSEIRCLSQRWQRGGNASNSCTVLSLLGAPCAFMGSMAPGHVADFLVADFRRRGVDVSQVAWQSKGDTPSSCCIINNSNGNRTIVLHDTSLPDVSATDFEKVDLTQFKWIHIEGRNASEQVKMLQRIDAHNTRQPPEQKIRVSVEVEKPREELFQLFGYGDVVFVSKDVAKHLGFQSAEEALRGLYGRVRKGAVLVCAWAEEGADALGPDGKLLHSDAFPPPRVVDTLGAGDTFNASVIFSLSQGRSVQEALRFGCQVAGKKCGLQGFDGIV

Assay [1] concerns the target KHK-C expressed in NRK-52E cells (Homo sapiens (Human), UniProt P50053). The assay is described as follows: KHK-C Cell-based Assay (EC50), NRK CTG, fructose-mediated ATP-depletion.
The next assay has as its system HepG2 cells. The assay is described as follows: F1P Cell-Based Assay (EC50), 13C6-fructose-1-phosphate in HepG2 cells (cell culture medium or 50% human plasma). Particulars: Homo sapiens.
In a further assay the target is human KHK-A (Homo sapiens (Human), UniProt P50053). Put plainly: KHK Biochemical Assay (IC50), ADP-Glo, KHK-A. Particulars: average of at least two separate assays. The method in brief:
as §1

Setting [2] is: HepG2, HepG2 cells, 50% human plasma, read-out: F1P 50% HP EC50.
Setting [3] is: HepG2, read-out: F1P 10% FBS EC50, HepG2 cells, cell culture medium (10% FBS).

KHK-C expressed in NRK-52E cells, sequence (P50053 whole entry): as above
human OATP1B1, sequence (Q9Y6L6 whole entry): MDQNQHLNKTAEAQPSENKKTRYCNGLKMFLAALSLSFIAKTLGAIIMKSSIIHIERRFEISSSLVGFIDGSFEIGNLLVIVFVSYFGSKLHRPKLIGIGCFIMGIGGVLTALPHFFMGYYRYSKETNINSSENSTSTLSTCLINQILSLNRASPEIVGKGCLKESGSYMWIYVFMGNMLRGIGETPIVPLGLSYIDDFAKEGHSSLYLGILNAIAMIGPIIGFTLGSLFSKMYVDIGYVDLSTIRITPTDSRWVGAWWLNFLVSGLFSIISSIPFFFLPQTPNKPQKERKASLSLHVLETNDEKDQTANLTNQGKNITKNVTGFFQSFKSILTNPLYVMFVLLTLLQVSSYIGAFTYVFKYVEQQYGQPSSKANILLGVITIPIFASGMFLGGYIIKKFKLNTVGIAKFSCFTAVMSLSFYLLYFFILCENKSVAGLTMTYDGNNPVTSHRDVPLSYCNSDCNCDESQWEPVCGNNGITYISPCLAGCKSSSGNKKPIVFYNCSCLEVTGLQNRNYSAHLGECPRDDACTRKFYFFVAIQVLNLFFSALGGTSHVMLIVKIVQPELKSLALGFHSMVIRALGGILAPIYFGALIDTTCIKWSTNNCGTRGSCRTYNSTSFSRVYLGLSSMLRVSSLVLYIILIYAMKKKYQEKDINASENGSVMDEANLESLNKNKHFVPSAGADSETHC
human KHK-A, sequence (P50053 other isoform, or with tags, fused parts or gaps): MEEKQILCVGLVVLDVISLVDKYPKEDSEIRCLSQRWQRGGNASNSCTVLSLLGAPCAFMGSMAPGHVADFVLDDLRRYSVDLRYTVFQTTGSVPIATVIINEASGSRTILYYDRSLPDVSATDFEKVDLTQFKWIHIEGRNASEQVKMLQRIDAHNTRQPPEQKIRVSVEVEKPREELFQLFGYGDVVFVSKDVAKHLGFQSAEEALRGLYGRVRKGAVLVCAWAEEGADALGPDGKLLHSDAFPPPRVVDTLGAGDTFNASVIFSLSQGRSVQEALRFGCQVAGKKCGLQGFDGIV

On to `C[C@H]1[C@H](O)CN1c1nc(-c2ccc3c(c2)OCC3NS(C)(=O)=O)c2c(n1)C(F)(F)CC2` (mixture of isomers) [Example 465], for which the figures for the IC50 on human OATP1B1 and at human KHK-C were 4580 nM and 1.4 nM, respectively. In addition, the results for the EC50 (in assay [1]; in the assay with HepG2 cells (setting [2]); with HepG2 cells (setting [3])) were 14.9 nM, 33.5 nM and 15.4 nM, respectively.

For `CCOc1cc(-c2nc(N3C[C@@H](O)[C@@H]3C)nc3c2CCC3(F)F)ccc1C(N)=O` [Example 170, 4-(7,7-difluoro-2-((2S,3R)-3-hydroxy-2-methylazetidin-1-yl)-6,7-dihydro-5H-cyclopenta[d]pyrimidin-4-yl)-2-ethoxybenzamide], the figures for the IC50 against human OATP1B1 and against human KHK-C (ADP-Glo) were 892 nM and 11.2 nM, respectively. Moreover, the EC50 was determined as 46.1 nM in assay [1], 80.3 nM in the assay on HepG2 cells (setting [2]) and 30.2 nM with HepG2 cells (setting [3]).

As for `COc1cc(-c2nc(N3C[C@@H](O)[C@@H]3C)nc3c2CCC3(F)F)ccc1C(N)=O` [Example 177, 4-(7,7-difluoro-2-((2S,3R)-3-hydroxy-2-methylazetidin-1-yl)-6,7-dihydro-5H-cyclopenta[d]pyrimidin-4-yl)-2-methoxybenzamide], the IC50 on human OATP1B1 was 3710 nM; at human KHK-C (ADP-Glo) it was 14.3 nM. For the same molecule, the concentration for a half-maximal effect (EC50) in assay [1] came out at 88.6 nM; in the assay on HepG2 cells (setting [2]), 66.6 nM; with HepG2 cells (setting [3]) it was 28.4 nM.

Take `C[C@H]1[C@H](O)CN1c1nc(-c2ccc3c(c2)CCCNC3=O)c2c(n1)C(F)(F)CC2` [Example 178, 7-(7,7-difluoro-2-((2S,3R)-3-hydroxy-2-methylazetidin-1-yl)-6,7-dihydro-5H-cyclopenta[d]pyrimidin-4-yl)-2,3,4,5-tetrahydro-1H-benzo[c]azepin-1-one]: the 50% inhibitory concentration (IC50) at human OATP1B1 was found to be 1350 nM; against human KHK-C (ADP-Glo), 5.4 nM. The EC50 in assay [1] stood at 27.4 nM; in the assay on HepG2 cells (setting [2]), 41 nM; in the assay with HepG2 cells (setting [3]), 22.1 nM.

For the molecule `C[C@H]1CCN1c1nc2c(c(-c3cc(F)c4c(=O)[nH]ccc4c3)n1)CCC2` [Example 382, 8-fluoro-6-[2-[(2S)-2-methylazetidin-1-yl]-6,7-dihydro-5H-cyclopenta[d]pyrimidin-4-yl]-2H-isoquinolin-1-one], the IC50 on human OATP1B1 was 149 nM; on human KHK-C (ADP-Glo), 6.3 nM; at human KHK-A (ADP-Glo), 16.1 nM. In assay [1], this molecule returned an EC50 of 13.8 nM.

As for `C[C@H]1CCN1c1nc2c(c(-c3ccc4c(=O)[nH]cnc4c3)n1)CCC2` [Example 383, 7-[2-[(2S)-2-methylazetidin-1-yl]-6,7-dihydro-5H-cyclopenta[d]pyrimidin-4-yl]-3H-quinazolin-4-one], the concentration for half-maximal inhibition (IC50) at human OATP1B1 was determined as 194 nM; on human KHK-C (ADP-Glo) it was 4.4 nM; against human KHK-A (ADP-Glo) it was 10.8 nM. Further, in assay [1], a half-maximal response (EC50) required 7.3 nM.

With `C[C@H]1[C@H](O)CN1c1nc2c(c(-c3ccc4c(N)nccc4c3)n1)CCC2` [Example 385, (2S,3R)-1-[4-(1-amino-6-isoquinolyl)-6,7-dihydro-5H-cyclopenta[d]pyrimidin-2-yl]-2-methyl-azetidin-3-ol], the IC50 against human OATP1B1 was determined as 687 nM. Besides, the EC50 is 4.2 nM in assay [1], 11.1 nM with HepG2 cells (setting [2]) and 6.5 nM in the assay on HepG2 cells (setting [3]).

For the molecule `C[C@H]1CCN1c1nc2c(c(-c3cc4cc[nH]c(=O)c4s3)n1)CCC2` [Example 392, 2-[2-[(2S)-2-methylazetidin-1-yl]-6,7-dihydro-5H-cyclopenta[d]pyrimidin-4-yl]-6H-thieno[2,3-c]pyridin-7-one], the half-inhibitory concentration (IC50) was 100 nM at human OATP1B1 and 1.5 nM on human KHK-C (ADP-Glo). Also, the EC50 in assay [1] turned out to be 3 nM; in the assay with HepG2 cells (setting [2]), 85.1 nM; with HepG2 cells (setting [3]) it was 10.9 nM.

Regarding `C[C@H]1CCN1c1nc2c(c(-c3ccc4c(=O)[nH]ncc4c3)n1)CCC2` [Example 427, 6-[2-[(2S)-2-methylazetidin-1-yl]-6,7-dihydro-5H-cyclopenta[d]pyrimidin-4-yl]-2H-phthalazin-1-one], the IC50 against human OATP1B1 worked out at 210 nM; against human KHK-C, 30.2 nM; against human KHK-A, 17.8 nM. The molecule further showed an EC50 in assay [1] of 40.2 nM.

As to `C[C@H]1CCN1c1nc2c(c(-c3ccc4c(=O)[nH]cc(S(N)(=O)=O)c4c3)n1)CCC2` [Example 433, 6-[2-[(2S)-2-methylazetidin-1-yl]-6,7-dihydro-5H-cyclopenta[d]pyrimidin-4-yl]-1-oxo-2H-isoquinoline-4-sulfonamide], the IC50 at human OATP1B1 stood at 967 nM; on human KHK-C, 6.3 nM; at human KHK-A it was 27.2 nM. Besides, the EC50 in assay [1] was determined as 484 nM.

Regarding `C[C@H]1[C@H](O)CN1c1nc(-c2cccc(CN(C)S(C)(=O)=O)c2)c2c(n1)C(F)(F)CC2` [Example 462, N-(3-(7,7-difluoro-2-((2S,3R)-3-hydroxy-2-methylazetidin-1-yl)-6,7-dihydro-5H-cyclopenta[d]pyrimidin-4-yl)benzyl)-N-methylmethanesulfonamide], the IC50 turned out to be 2760 nM at human OATP1B1 and 3.2 nM at human KHK-C. Further, the half-maximal effective concentration (EC50) in assay [1] worked out at 9.2 nM; in the assay on HepG2 cells (setting [2]), 33.7 nM; in the assay on HepG2 cells (setting [3]), 9.6 nM.

As for `C[C@H]1CCN1c1nc2c(c(-c3ccc4nc(N)[nH]c(=O)c4c3)n1)CCC2` [Example 463, (S)-2-amino-6-(2-(2-methylazetidin-1-yl)-6,7-dihydro-5H-cyclopenta[d]pyrimidin-4-yl)quinazolin-4(3H)-one], the IC50 at human OATP1B1 turned out to be 1360 nM; on human KHK-C, 3.9 nM. Further, the EC50 in assay [1] stood at 150 nM; with HepG2 cells (setting [2]), 46.3 nM; with HepG2 cells (setting [3]), 7.3 nM.

`C[C@H]1[C@H](O)CN1c1nc(-c2cccc(S(C)(=N)=O)c2)c2c(n1)C(F)(F)CC2` (stereo partly drawn) [Example 464]: the IC50 is > 40000 nM against human OATP1B1 and 15.7 nM at human KHK-C. Moreover, the results for the EC50 (in assay [1]; in the assay with HepG2 cells (setting [2]); in the assay on HepG2 cells (setting [3])) were 55 nM, 55.1 nM and 45.8 nM, respectively.

Turning to `C[C@H]1CCN1c1nc(-c2ccc3c(c2)CCNC3)c2c(n1)C(F)(F)CC2` [Example 642, 6-[7,7-difluoro-2-[(2S)-2-methylazetidin-1-yl]-5,6-dihydrocyclopenta[d]pyrimidin-4-yl]-1,2,3,4-tetrahydroisoquinoline], the IC50 turned out to be 22500 nM at human OATP1B1 and 0.9 nM against human KHK-C. Also, the results for the EC50 (in assay [1]; with HepG2 cells (setting [2]); in the assay with HepG2 cells (setting [3])) were 4.1 nM, 2.4 nM and 1.1 nM, respectively.

Consider `C[C@H]1[C@H](O)CN1c1nc(-c2ccc3c(c2)O[C@H](CO)CNC3=O)c2c(n1)C(F)(F)CC2` [Example 705, (S)-8-(7,7-difluoro-2-((2S,3R)-3-hydroxy-2-methylazetidin-1-yl)-6,7-dihydro-5H-cyclopenta[d]pyrimidin-4-yl)-2-(hydroxymethyl)-3,4-dihydrobenzo[f][1,4]oxazepin-5(2H)-one], for which the figures for the IC50 against human OATP1B1 and against human KHK-C were 8910 nM and 3.2 nM, respectively. The EC50 worked out at 630 nM in assay [1], 55.2 nM in the assay on HepG2 cells (setting [2]) and 52.4 nM in the assay on HepG2 cells (setting [3]).

For the molecule `C[C@H]1CCN1c1nc(-c2ccc(C3(N)CS(=O)(=O)C3)cc2)c2c(n1)C(F)(F)CC2` [Example 769, (S)-3-amino-3-(4-(7,7-difluoro-2-(2-methylazetidin-1-yl)-6,7-dihydro-5H-cyclopenta[d]pyrimidin-4-yl)phenyl)thietane 1,1-dioxide], the IC50 turned out to be 19100 nM against human OATP1B1 and 0.8 nM at human KHK-C. Also, the 50% effective concentration (EC50) stood at 3.1 nM in assay [1], 18.4 nM in the assay on HepG2 cells (setting [2]) and 6.7 nM in the assay with HepG2 cells (setting [3]).
